From the supplement of paper PMC11451515

Columns and labels:
Settings in all cases: 48 h
SEM cells [1] = test: cell viability relative to DMSO control; higher = less cytotoxic
Method in brief: (§1)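 Cells were incubated for 48 h at 37°C before CellTiter-Glo One luminescence was read. The cells were NOMO1 or SEM (500 cells/well) or P12-Ichikawa (1000 cells/well) leukemia cells, adapted for at least four passages in each medium and seeded in 1536-well plates (5 μl). Dosing used library compounds in DMSO applied by pin over 11 threefold points, 47 μM to 0.79 nM. Viability is the per-plate percentage of DMSO wells, with cell-free wells as background.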

NOMO1 [2] = test: as above
Method in brief: as §1

P12-Ichikawa [3] = test: as above
Method in brief: as §1

SEM cells [4] = test: AUC of viability dose-response curve (% viability x log10 dose units); higher = less sensitive
Method in brief: (§2)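 Medium-adapted leukemia cells in 1536-well plates, at 500 or 1000 cells/well, were incubated for 48 h at 37°C with library compounds in DMSO at 11 threefold doses from 47 μM to 0.79 nM. CellTiter-Glo One luminescence normalised per plate to DMSO and cell-free wells was fitted with a four-parameter log-logistic model over log10 doses. Area under the curve was integrated from this fit by trapezoidal rule, with curves beyond full viability scaled and failed quality-control curves removed.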

NOMO1 [5] = test: as above
Method in brief: as §2

P12-Ichikawa [6] = test: as above
Method in brief: as §2

Cc1cc(-c2ccc(CC(=O)Nc3ccc(-c4cccnc4)cc3)cc2)ccn1
cell viability [%]
Settings	NOMO1 [2]	P12-Ichikawa [3]	SEM cells [1]
HPLM + 10% dialyzed FBS, 0.000781 µM	–	113	115
HPLM + 10% dialyzed FBS, 0.00234 µM	–	113	112
HPLM + 10% dialyzed FBS, 0.00702 µM	–	121	123
HPLM + 10% dialyzed FBS, 0.0211 µM	–	115	118
HPLM + 10% dialyzed FBS, 0.0632 µM	–	118	118
HPLM + 10% dialyzed FBS, 0.19 µM	–	111	119
HPLM + 10% dialyzed FBS, 0.569 µM	–	112	123
HPLM + 10% dialyzed FBS, 1.71 µM	–	108	87.8
HPLM + 10% dialyzed FBS, 5.12 µM	–	97.7	80.8
HPLM + 10% dialyzed FBS, 15.4 µM	–	57.1	12.7
HPLM + 10% dialyzed FBS, 46.1 µM	–	70.2	18.4
RPMI 5 mM glucose + 10% FBS, 0.000781 µM	108	117	101
RPMI 5 mM glucose + 10% FBS, 0.00234 µM	118	119	123
RPMI 5 mM glucose + 10% FBS, 0.00702 µM	108	121	131
RPMI 5 mM glucose + 10% FBS, 0.0211 µM	111	117	133
RPMI 5 mM glucose + 10% FBS, 0.0632 µM	107	118	124
RPMI 5 mM glucose + 10% FBS, 0.19 µM	110	132	129
RPMI 5 mM glucose + 10% FBS, 0.569 µM	116	111	131
RPMI 5 mM glucose + 10% FBS, 1.71 µM	96.4	106	112
RPMI 5 mM glucose + 10% FBS, 5.12 µM	84.6	111	123
RPMI 5 mM glucose + 10% FBS, 15.4 µM	54.3	89.9	24.5
RPMI 5 mM glucose + 10% FBS, 46.1 µM	40.9	62.6	15.5
RPMI 5 mM glucose + 10% dialyzed FBS, 0.000781 µM	119	112	113
RPMI 5 mM glucose + 10% dialyzed FBS, 0.00234 µM	131	110	113
RPMI 5 mM glucose + 10% dialyzed FBS, 0.00702 µM	124	111	126
RPMI 5 mM glucose + 10% dialyzed FBS, 0.0211 µM	110	114	106
RPMI 5 mM glucose + 10% dialyzed FBS, 0.0632 µM	134	119	110
RPMI 5 mM glucose + 10% dialyzed FBS, 0.19 µM	103	108	124
RPMI 5 mM glucose + 10% dialyzed FBS, 0.569 µM	106	104	128
RPMI 5 mM glucose + 10% dialyzed FBS, 1.71 µM	110	106	112
RPMI 5 mM glucose + 10% dialyzed FBS, 5.12 µM	91.8	96.3	104
RPMI 5 mM glucose + 10% dialyzed FBS, 15.4 µM	55.8	69.1	21.7
RPMI 5 mM glucose + 10% dialyzed FBS, 46.1 µM	41.7	55.7	16

AUC of viability dose-response curve
Settings	NOMO1 [5]	P12-Ichikawa [6]	SEM cells [4]
HPLM + 10% dialyzed FBS	380	439	392
RPMI 5 mM glucose + 10% FBS	420	447	418
RPMI 5 mM glucose + 10% dialyzed FBS	413	438	413

COc1c(C)c2c(c(O)c1C/C=C(\C)CCC(=O)OCCN1CCOCC1)C(=O)OC2
cell viability [%]
Settings	NOMO1 [2]	P12-Ichikawa [3]	SEM cells [1]
HPLM + 10% dialyzed FBS, 0.000781 µM	90.3	106	107
HPLM + 10% dialyzed FBS, 0.00234 µM	91.9	114	110
HPLM + 10% dialyzed FBS, 0.00702 µM	110	114	99.8
HPLM + 10% dialyzed FBS, 0.0211 µM	122	104	117
HPLM + 10% dialyzed FBS, 0.0632 µM	112	124	105
HPLM + 10% dialyzed FBS, 0.19 µM	99.8	106	121
HPLM + 10% dialyzed FBS, 0.569 µM	107	109	92.8
HPLM + 10% dialyzed FBS, 1.71 µM	86.3	109	106
HPLM + 10% dialyzed FBS, 5.12 µM	60.5	58.2	64.6
HPLM + 10% dialyzed FBS, 15.4 µM	43.9	40.1	39.2
HPLM + 10% dialyzed FBS, 46.1 µM	31.9	35.6	26.2
RPMI 5 mM glucose + 10% FBS, 0.000781 µM	98.5	104	102
RPMI 5 mM glucose + 10% FBS, 0.00234 µM	108	105	113
RPMI 5 mM glucose + 10% FBS, 0.00702 µM	98	111	107
RPMI 5 mM glucose + 10% FBS, 0.0211 µM	92.7	109	115
RPMI 5 mM glucose + 10% FBS, 0.0632 µM	95	105	116
RPMI 5 mM glucose + 10% FBS, 0.19 µM	110	106	116
RPMI 5 mM glucose + 10% FBS, 0.569 µM	107	110	101
RPMI 5 mM glucose + 10% FBS, 1.71 µM	122	93.9	95.8
RPMI 5 mM glucose + 10% FBS, 5.12 µM	62.9	50.2	60.7
RPMI 5 mM glucose + 10% FBS, 15.4 µM	38.8	30.1	38.7
RPMI 5 mM glucose + 10% FBS, 46.1 µM	33.6	26	26
RPMI 5 mM glucose + 10% dialyzed FBS, 0.000781 µM	102	109	110
RPMI 5 mM glucose + 10% dialyzed FBS, 0.00234 µM	108	100	110
RPMI 5 mM glucose + 10% dialyzed FBS, 0.00702 µM	102	100	101
RPMI 5 mM glucose + 10% dialyzed FBS, 0.0211 µM	111	104	111
RPMI 5 mM glucose + 10% dialyzed FBS, 0.0632 µM	104	98.3	104
RPMI 5 mM glucose + 10% dialyzed FBS, 0.19 µM	115	106	117
RPMI 5 mM glucose + 10% dialyzed FBS, 0.569 µM	98.9	102	107
RPMI 5 mM glucose + 10% dialyzed FBS, 1.71 µM	89	88.3	124
RPMI 5 mM glucose + 10% dialyzed FBS, 5.12 µM	64.7	57.1	86.4
RPMI 5 mM glucose + 10% dialyzed FBS, 15.4 µM	49.5	35.4	56
RPMI 5 mM glucose + 10% dialyzed FBS, 46.1 µM	42.2	30.3	32.6

AUC of viability dose-response curve
Settings	NOMO1 [5]	P12-Ichikawa [6]	SEM cells [4]
HPLM + 10% dialyzed FBS	402	406	405
RPMI 5 mM glucose + 10% FBS	412	393	396
RPMI 5 mM glucose + 10% dialyzed FBS	408	400	427
